Measurements published in patent publication US20060003020A1, “Anti-metastatic ability of mibefradil and gadolinium” (THE REGENTS OF THE UNIVERSITY OF MICHIGAN, priority 2004, published 2006).

Key:
HT1080 cells [1] = test: Phagokinetic track assay of HT1080 cell motility; format: cell-based; settings: for ability of HT1080 cells to clear the surrounding surface / inhibitory effect on clearing of the surface: 22 hours; for ability of HT1080 cells to clear the surrounding surface: brightfield microscopy; for cell motility by swept area ratio (total swept area divided by cell area): dose response, HT1080 cells; for inhibitory effect on clearing of the surface: concentrations expected to block the relevant Ca^2+ channels
Description: HT1080 cells were incubated on gold particle-coated glass coverslips for 22 hours. […] A suspension of 5000 cells/ml was treated with or without Ca^2+ channel blockers then seeded onto the gold-coated coverslips. […] The tracks produced by the cells were viewed by brightfield microscopy with a 10× objective. Thirty randomly selected tracks were measured for each slide.
As cells migrated on these surfaces, the gold particles were cleared from regions of the surface and frequently picked up by the cells, making the cells appear darker and the surrounding area appear lighter when viewed by microscopy.
The size of HT1080 cells varies considerably. To evaluate cell motility, a swept area ratio was used, which calculates total swept area divided by cell area.

HT1080 cells [2] = test: High speed microscopy of intracellular Ca^2+ waves in HT1080 cells; format: cell-based; settings: high speed imaging
Description: Recent studies have shown that Ca^2+ spikes of polarized neutrophils and colorectal tumor cell transfectants are associated with certain intracellular Ca^2+ waves (Kindzelskii et al., J. Immunol. 170:64-72, 2003; Wang et al., J Immunol. 170:795-804, 2003). To visualize these waves, images must be collected using very short shutter speeds to avoid image blurring due to wave motion and indo-1 diffusion while the shutter is open. […]
High speed microscopy was performed using an Axiovert 135 fluorescene microscope with a quartz condenser, quartz objective, and an AttoArc mercury lamp (Zeiss). To detect fluorescence changes in the short wavelength emission region of indo-1, a 355HT15 exciter, a 390LP dichroic reflector, and a 405DF43 emission filter were used. […]
A region of high Ca concentration, seen in the microscope as a bright spot within the cell, was brought about by the local opening of Ca^2+ channels. As indo-1 has a relatively high affinity for Ca^2+ and a finite amount of time was required for the signaling apparatus to pump-down free cytosolic Ca^2+, a low intensity “tail” was observed next to the region of bright Ca^2+ indo-1 fluorescence (i.e., the Ca^2+ wave has a low intensity tail on the side opposite to the direction of wave motion).

HT1080 cells [3] = test: Biocoat Matrigel invasion chamber assay of HT1080 cell invasion; format: cell-based; settings: 22 hour incubation; for number of migrating cells: control cells approximately 80; for lowest dose that exhibits maximal inhibition of invasiveness: HT1080 cells; for HT1080 cell transmigration: dose response; for effect on cell invasiveness: pharmacologically appropriate doses
HT1080 cells [4] = test: Microfluorometry of Ca^2+ spikes/oscillations in indo-1 labeled HT1080 cells; settings: concentration not given
HT1080 cells [5] = test: T-type channel expression and cell shape of mibefradil treated HT1080 cells
Description: Thus, it was necessary to determine if blockade of T-type calcium channels on HT1080 cells caused morphological transformation.

## NC(=O)c1nnn(Cc2cc(Cl)c(C(=O)c3ccc(Cl)cc3)c(Cl)c2)c1N [CAI, Carboxyamidotriazole]
HT1080 cells [1]; 10 μM
  ability of HT1080 cells to clear the surrounding surface: significantly decreased

## [Gd+3] [Gd^3+, gadolinium (Gd^3+)]
HT1080 cells [2]
  propagating Ca^2+ wave after addition: a Ca^2+ wave was observed in cells before, but not after addition
HT1080 cells [1]; 1.5 μM
  ability of HT1080 cells to clear the surrounding surface: significantly decreased
HT1080 cells [1]; Six μM
  HT1080 movement: almost completely abolished
HT1080 cells [1]
  cell motility by swept area ratio (total swept area divided by cell area): significantly inhibited cell motility in a dose-dependent manner
HT1080 cells [3]
  number of migrating cells: approximately 22
  lowest dose that exhibits maximal inhibition of invasiveness: 20 µM
  HT1080 cell transmigration: inhibited HT1080 cell transmigration in a dose-dependent fashion
HT1080 cells [4]
  effect on Ca^2+ spikes: Ca^2+ spikes diminished then disappeared

## COc1ccc(CCCOC(Cn2ccnc2)c2ccc(OC)cc2)cc1 (stereo not shown) [SKF96365]
HT1080 cells [1]
  inhibitory effect on clearing of the surface: no inhibitory effect was observed
HT1080 cells [3]
  effect on cell invasiveness: no effect

## COc1ccc([C@@H]2Sc3ccccc3N(CCN(C)C)C(=O)[C@@H]2OC(C)=O)cc1 [diltiazem]
HT1080 cells [1]
  inhibitory effect on clearing of the surface: no inhibitory effect was observed
HT1080 cells [3]
  effect on cell invasiveness: no effect

## COCC(=O)O[C@]1(CCN(C)CCCc2nc3ccccc3[nH]2)CCc2cc(F)ccc2[C@@H]1C(C)C [mibefradil]
HT1080 cells [2]
  propagating Ca^2+ wave after addition: no propagating Ca^2+ wave was found
HT1080 cells [1]; 1.5 μM
  ability of HT1080 cells to clear the surrounding surface: significantly decreased
HT1080 cells [1]; 5 μM
  decrease of cell-swept area compared with control treated cells: approximately 90%
HT1080 cells [1]
  cell motility by swept area ratio (total swept area divided by cell area): significantly inhibited cell motility in a dose-dependent manner
HT1080 cells [3]
  number of migrating cells: approximately 25
  lowest dose that exhibits maximal inhibition of invasiveness: 5 µM
  HT1080 cell transmigration: inhibited HT1080 cell transmigration in a dose-dependent fashion
HT1080 cells [5]
  cell shape / morphological transformation: maintain their rounded shape

## COC(=O)C1=C(C)NC(C)=C(C(=O)OCCN(C)Cc2ccccc2)C1c1cccc([N+](=O)[O-])c1 (stereo not shown) [nicardipine]
HT1080 cells [3]
  effect on cell invasiveness: no effect
